The record followed here is ChEMBL document CHEMBL1201862, “PubChem BioAssay data set” (2004).

Each structure is given as a SMILES string. The source made the active and inactive calls.

Assay [1] deals with Envelope glycoprotein gp160 (Human immunodeficiency virus 1, UniProt Q6QLK5). In words: inhibitors of HIV fusion peptide binding, primary screen, biochemical, uHTS, fluorescence dequenching (AID 1986).
The target in assay [2] is T1, Carboxy-terminal domain RNA polymerase II polypeptide A small phosphatase 1 (Homo sapiens, UniProt Q9GZU7).
T1 sequence (Q9GZU7 whole entry): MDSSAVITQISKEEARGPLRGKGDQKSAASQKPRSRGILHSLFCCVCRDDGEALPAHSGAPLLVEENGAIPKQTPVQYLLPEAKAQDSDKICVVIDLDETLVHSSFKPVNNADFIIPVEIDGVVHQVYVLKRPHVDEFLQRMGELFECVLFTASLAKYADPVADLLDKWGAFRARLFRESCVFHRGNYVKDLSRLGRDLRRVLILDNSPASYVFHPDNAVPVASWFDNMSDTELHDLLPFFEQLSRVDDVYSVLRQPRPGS
In words: inhibitors of CTDSP1, concentration-response testing, biochemical assay, absorbance-based, actives from ultra-high-throughput screening (AID 540297). In kind it is functional.

The target in assay [3] is T2, Corticotropin-releasing factor receptor 2/Corticotropin-releasing factor-binding protein (Homo sapiens, UniProt P24387+Q13324).
T2 sequence (Q13324 whole entry): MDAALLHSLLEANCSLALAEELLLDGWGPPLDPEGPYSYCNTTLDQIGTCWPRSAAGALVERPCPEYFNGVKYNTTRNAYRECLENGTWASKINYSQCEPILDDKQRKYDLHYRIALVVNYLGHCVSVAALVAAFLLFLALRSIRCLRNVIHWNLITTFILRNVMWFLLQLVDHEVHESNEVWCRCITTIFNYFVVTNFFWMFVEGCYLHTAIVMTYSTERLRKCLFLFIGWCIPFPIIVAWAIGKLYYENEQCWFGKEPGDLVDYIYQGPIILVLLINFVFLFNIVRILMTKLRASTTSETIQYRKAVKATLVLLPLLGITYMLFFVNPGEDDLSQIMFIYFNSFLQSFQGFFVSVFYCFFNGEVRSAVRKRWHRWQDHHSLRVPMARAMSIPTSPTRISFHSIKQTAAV
T2 sequence (P24387 whole entry): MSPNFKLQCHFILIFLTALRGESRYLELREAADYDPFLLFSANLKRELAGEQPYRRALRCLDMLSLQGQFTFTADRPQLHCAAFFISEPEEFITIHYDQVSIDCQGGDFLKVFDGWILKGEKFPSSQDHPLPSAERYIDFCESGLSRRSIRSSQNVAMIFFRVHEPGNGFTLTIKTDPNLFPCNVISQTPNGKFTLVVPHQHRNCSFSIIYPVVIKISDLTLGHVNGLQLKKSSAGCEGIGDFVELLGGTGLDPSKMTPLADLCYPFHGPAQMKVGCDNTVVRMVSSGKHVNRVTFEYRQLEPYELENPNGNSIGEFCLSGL
In words: Dose Response confirmation of uHTS hits for small molecule antagonists of the CRF-binding protein and CRF-R2 receptor complex. The following applies: read-out: IC50_Mean. In kind it is functional.

Assay [4] deals with T2, Corticotropin-releasing factor receptor 2/Corticotropin-releasing factor-binding protein. The assay is described as follows: activators of CRF receptor 2 with binding protein – uHTS hits, confirmation (AID 602473). In kind it is functional. The following applies: read-out: EC50_Mean.
Assay [5] is described as follows: CRF-BP/CRF-R2 complex antagonists, dose response, cell-based, uHTS hits, 384-well (AID 651639). Format: functional, Homo sapiens. The following applies: read-out: IC50_Mean.
Assay [6] deals with T3, Scavenger receptor class B member 1 (Mus musculus, UniProt Q61009).
T3 sequence (Q61009 whole entry): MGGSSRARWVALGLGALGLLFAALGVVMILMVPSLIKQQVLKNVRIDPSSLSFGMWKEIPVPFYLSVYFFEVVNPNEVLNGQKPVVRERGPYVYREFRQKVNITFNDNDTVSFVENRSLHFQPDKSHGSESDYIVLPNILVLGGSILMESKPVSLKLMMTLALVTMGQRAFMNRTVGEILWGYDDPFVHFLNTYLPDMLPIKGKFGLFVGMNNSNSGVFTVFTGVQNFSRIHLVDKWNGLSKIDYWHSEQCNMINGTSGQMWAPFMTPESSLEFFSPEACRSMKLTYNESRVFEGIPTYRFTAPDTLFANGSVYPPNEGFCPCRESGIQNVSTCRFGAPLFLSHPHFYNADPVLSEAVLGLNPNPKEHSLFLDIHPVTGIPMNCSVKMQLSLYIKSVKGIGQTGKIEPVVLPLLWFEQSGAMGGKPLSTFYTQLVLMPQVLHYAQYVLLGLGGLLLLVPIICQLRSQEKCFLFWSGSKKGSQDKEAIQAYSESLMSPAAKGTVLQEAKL
In words: inhibitors of SR-BI mediated HDL lipid uptake, dose response, ldlA[mSR-BI] cells, fluorescence, cherry pick (AID 493194).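 Also: cellular uptake of fluorescent DiI-labeled HDL measured as cell fluorescence.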 Format: functional, cell-based.

For assay [7], the target named is T4, Protein phosphatase methylesterase 1 (Homo sapiens, UniProt Q9Y570). The assay is described as follows: Late stage results from the probe development effort to identify inhibitors of the protein methylesterase PME-1: Gel-based Activity-Based Protein Profiling (ABPP) IC50: Purified enzyme. Format: functional.
T4 sequence (Q9Y570 whole entry): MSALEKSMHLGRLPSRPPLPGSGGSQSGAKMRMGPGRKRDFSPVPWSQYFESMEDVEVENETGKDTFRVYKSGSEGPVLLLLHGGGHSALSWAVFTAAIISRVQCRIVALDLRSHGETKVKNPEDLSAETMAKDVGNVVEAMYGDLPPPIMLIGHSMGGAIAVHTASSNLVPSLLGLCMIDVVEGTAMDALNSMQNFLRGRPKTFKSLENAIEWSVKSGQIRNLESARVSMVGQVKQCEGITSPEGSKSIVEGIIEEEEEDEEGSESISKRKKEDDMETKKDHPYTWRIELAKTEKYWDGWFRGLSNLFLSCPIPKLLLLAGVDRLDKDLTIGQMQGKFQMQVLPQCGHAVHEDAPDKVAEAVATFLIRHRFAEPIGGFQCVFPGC
In assay [8] the target is T4, Protein phosphatase methylesterase 1. In words: PME-1 inhibitor potency by in-gel ABPP, dose response, selectivity assay for PME-1 inhibitor project, cell lysate, mouse brain cytosol, FP-rhodamine, panel member PME-1 Assay Panel member description: Inhibition of endogenously expressed PME-1 (AID 2366).
For another assay, the target named is Prothrombin (Homo sapiens, UniProt P00734). The assay is described as follows: Thrombin 1536 HTS Dose Response Confirmation. [Related pubchem assays: 1046 (Thrombin 1536 HTS; hits were confirmed in this assay)]. Format: functional.
The target in another assay is T5, Coagulation factor XII (Homo sapiens, UniProt P00748).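 Also: activated factor XIIa alpha cleaving a fluorogenic AMC peptide substrate; inhibitor potency from loss of enzyme activity.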
T5 sequence (P00748 whole entry): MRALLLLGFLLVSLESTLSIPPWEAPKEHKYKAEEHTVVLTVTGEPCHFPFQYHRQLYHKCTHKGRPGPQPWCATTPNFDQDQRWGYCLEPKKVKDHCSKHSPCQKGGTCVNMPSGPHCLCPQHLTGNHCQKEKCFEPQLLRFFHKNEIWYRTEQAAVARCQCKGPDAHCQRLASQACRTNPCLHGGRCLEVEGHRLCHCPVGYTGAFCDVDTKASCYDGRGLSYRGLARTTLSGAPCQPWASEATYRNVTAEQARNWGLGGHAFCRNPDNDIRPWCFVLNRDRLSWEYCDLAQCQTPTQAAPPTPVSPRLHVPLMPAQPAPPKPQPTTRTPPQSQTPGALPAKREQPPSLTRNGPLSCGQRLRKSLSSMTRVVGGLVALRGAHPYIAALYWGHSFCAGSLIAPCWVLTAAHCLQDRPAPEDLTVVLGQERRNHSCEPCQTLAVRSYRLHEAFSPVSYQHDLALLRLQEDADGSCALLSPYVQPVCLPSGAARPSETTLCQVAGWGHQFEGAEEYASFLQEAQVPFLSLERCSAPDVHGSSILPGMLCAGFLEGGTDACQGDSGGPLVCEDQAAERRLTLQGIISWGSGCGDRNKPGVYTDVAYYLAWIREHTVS
In kind it is functional.

For assay [9], the target named is DNA damage-inducible transcript 3 protein (Mus musculus, UniProt P35639). In kind it is functional, Cricetulus griseus.
Chain of DNA damage-inducible transcript 3 protein (P35639 whole entry): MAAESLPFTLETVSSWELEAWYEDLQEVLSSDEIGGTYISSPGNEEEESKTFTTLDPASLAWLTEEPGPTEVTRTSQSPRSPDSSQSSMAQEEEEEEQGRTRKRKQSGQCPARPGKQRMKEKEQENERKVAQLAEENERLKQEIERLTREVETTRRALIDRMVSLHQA
The target in a further assay is X-box-binding protein 1 (Homo sapiens, UniProt P17861). In kind it is functional, Cricetulus griseus.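 Also: confirmatory dose-response counter-screen serving a CHOP assay.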
Chain of X-box-binding protein 1 (P17861 whole entry): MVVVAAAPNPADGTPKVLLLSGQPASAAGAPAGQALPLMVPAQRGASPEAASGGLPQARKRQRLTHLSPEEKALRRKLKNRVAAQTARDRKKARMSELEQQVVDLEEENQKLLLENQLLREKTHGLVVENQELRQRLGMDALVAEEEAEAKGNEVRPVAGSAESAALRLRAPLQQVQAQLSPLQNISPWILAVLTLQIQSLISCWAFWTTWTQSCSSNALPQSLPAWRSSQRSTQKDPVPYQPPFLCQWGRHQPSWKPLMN
The target in a further assay is Genome polyprotein (dengue virus type 2, UniProt P29990). The assay is described as follows: Dengue-2 NS5 methyltransferase inhibitors, primary screen, biochemical, confirmation dose response (AID 588689). In kind it is functional.
Assay [10] addresses T6, Fatty acid synthase (Homo sapiens, UniProt P49327). The assay is described as follows: FAS thioesterase domain inhibitors, dose response, biochemical, endpoint fluorescence intensity, uHTS hits (AID 624327).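 Also: fluorescence from hydrolysis of an O-methyl fluorescein acyl ester substrate by the enzyme.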 In kind it is functional.
Assay [11] deals with T6, Fatty acid synthase. The assay is described as follows: FAS thioesterase domain inhibitors, dose response, biochemical, kinetic fluorescence intensity (AID 624326).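 Also: rate of fluorescence rise from hydrolysis of a fluorogenic O-methyl fluorescein ester substrate.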 In kind it is functional.
Assay [12] concerns the target Melanin-concentrating hormone receptor 1 (Homo sapiens, UniProt Q99705). The assay is described as follows: Late-stage fluorescence-based counterscreen for antagonists of the G-protein coupled receptor 7 (GPR7): cell-based dose response assay to identify antagonists of the melanin-concentrating hormone receptor 1 (MCHR1). [Related pubchem assays (depositor defined):AID1861, AID1880, AID1952, AID2148, AID2251, AID2257, AID485339]. In kind it is functional. (A counterscreen serves to expose hits that act by an unwanted route or on another target.);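 also: stimulated with 30 nM MCH peptide agonist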

Assay [13] has as its target Neuropeptides B/W receptor type 1 (Homo sapiens, UniProt P48145). The assay is described as follows: GPR7 antagonist potency, late-stage follow-up, cell-based, fluorescence, dose response (AID 463251). Format: functional.
The target in assay [14] is Induced myeloid leukemia cell differentiation protein Mcl-1 (Homo sapiens, UniProt Q07820). Format: functional.
The next assay relates to HeLa. In words: HeLa cell cytotoxicity, dose response, cytotoxicity control, 24 h, cherry-picked samples (AID 504726).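 Also: potency for cytotoxicity as loss of luminescence signal.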 Format: functional, cell-based. The following applies: Homo sapiens.
The target of assay [15] is C-C chemokine receptor type 6 (Homo sapiens, UniProt P51684). In words: CCR6 receptor antagonists, dose response, cell-based, luminescent beta-arrestin readout (AID 504728). Format: functional.
Chain of C-C chemokine receptor type 6 (P51684 whole entry): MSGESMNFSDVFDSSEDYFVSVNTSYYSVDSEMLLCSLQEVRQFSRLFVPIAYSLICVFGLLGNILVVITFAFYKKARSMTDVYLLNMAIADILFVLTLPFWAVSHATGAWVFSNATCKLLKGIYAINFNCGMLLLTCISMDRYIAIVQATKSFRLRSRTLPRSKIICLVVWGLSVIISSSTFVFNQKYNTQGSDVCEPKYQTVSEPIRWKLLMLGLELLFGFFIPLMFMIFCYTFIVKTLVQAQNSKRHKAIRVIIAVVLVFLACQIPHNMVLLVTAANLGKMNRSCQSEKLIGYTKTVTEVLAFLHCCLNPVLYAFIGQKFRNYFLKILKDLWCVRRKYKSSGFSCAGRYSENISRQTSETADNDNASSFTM
A further assay addresses Beta-galactosidase (Escherichia coli, UniProt Q8VNN2). In words: beta-galactosidase enzyme inhibitors and activators, dose response, artefact control for CCR6 antagonist project, biochemical, E. coli enzyme, set 3 (AID 504712). In kind it is functional.
For assay [16], the target named is Eukaryotic translation initiation factor 4E (Mus musculus, UniProt P63073). In words: eIF4E–eIF4G protein interaction inhibitors, dose response, biochemical, TR-FRET (AID 855).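 Also: potency for disrupting eIF4E binding to eIF4GI seen as loss of FRET.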 Format: functional. (In general: In TR-FRET formats the signal depends on donor and acceptor labels being close together.)
In another assay the target is T7, Hexokinase HKDC1 (Homo sapiens, UniProt Q2TB90).
T7 sequence (Q2TB90 whole entry): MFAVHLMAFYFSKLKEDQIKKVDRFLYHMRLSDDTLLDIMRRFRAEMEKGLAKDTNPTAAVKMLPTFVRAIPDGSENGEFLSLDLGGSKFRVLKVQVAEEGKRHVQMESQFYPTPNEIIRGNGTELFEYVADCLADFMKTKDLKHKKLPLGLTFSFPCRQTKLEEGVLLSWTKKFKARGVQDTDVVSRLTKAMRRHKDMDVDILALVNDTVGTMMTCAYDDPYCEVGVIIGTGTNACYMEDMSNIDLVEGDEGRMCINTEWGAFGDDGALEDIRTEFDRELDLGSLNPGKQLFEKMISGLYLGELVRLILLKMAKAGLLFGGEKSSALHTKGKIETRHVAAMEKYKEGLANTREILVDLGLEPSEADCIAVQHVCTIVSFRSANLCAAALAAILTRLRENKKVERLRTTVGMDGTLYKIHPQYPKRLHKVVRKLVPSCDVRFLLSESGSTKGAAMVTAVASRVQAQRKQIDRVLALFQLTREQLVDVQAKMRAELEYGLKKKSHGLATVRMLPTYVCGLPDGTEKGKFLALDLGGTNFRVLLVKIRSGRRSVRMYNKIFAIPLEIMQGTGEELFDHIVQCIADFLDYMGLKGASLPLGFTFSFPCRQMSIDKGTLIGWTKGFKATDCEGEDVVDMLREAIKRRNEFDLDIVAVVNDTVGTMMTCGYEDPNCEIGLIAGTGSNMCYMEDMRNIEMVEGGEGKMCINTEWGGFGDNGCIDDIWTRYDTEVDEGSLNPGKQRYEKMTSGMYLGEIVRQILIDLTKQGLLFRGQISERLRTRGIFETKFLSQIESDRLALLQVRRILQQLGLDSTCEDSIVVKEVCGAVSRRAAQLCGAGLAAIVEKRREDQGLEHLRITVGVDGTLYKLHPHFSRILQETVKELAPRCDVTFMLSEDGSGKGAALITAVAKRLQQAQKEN
In words: HKDC1 hexokinase inhibitors, dose response, biochemical, W721R variant (AID 504729). In kind it is functional.

Another assay deals with INS1. In words: beta cell apoptosis inhibitors, cytokine rescue, dose response, luminescence, retest (AID 449756).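 Also: cell death triggered by IL-1 beta plus TNF-alpha plus IFN-gamma mixture; protective hits raise ATP signal compared with cytokine alone wells.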 In kind it is functional, cell-based. The following applies: Rattus norvegicus.
Assay [17] deals with Dual specificity protein phosphatase 3 (Homo sapiens, UniProt P51452). In words: VHR1 inhibitor Ki determination, SAR follow-up, biochemical, colorimetric (AID 2004).
Chain of Dual specificity protein phosphatase 3 (P51452 whole entry): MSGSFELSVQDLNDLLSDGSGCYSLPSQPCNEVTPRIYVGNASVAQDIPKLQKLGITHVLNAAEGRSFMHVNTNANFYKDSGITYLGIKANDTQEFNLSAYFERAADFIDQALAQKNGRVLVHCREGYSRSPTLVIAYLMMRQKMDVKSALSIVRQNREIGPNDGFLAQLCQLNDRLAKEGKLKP

What is called AC50 is the concentration giving half of the maximal activity seen. Broadly, the Ki is the equilibrium dissociation constant of an inhibitor or competing ligand from its target.

T6 sequence (P49327 whole entry, the tested form may be a part): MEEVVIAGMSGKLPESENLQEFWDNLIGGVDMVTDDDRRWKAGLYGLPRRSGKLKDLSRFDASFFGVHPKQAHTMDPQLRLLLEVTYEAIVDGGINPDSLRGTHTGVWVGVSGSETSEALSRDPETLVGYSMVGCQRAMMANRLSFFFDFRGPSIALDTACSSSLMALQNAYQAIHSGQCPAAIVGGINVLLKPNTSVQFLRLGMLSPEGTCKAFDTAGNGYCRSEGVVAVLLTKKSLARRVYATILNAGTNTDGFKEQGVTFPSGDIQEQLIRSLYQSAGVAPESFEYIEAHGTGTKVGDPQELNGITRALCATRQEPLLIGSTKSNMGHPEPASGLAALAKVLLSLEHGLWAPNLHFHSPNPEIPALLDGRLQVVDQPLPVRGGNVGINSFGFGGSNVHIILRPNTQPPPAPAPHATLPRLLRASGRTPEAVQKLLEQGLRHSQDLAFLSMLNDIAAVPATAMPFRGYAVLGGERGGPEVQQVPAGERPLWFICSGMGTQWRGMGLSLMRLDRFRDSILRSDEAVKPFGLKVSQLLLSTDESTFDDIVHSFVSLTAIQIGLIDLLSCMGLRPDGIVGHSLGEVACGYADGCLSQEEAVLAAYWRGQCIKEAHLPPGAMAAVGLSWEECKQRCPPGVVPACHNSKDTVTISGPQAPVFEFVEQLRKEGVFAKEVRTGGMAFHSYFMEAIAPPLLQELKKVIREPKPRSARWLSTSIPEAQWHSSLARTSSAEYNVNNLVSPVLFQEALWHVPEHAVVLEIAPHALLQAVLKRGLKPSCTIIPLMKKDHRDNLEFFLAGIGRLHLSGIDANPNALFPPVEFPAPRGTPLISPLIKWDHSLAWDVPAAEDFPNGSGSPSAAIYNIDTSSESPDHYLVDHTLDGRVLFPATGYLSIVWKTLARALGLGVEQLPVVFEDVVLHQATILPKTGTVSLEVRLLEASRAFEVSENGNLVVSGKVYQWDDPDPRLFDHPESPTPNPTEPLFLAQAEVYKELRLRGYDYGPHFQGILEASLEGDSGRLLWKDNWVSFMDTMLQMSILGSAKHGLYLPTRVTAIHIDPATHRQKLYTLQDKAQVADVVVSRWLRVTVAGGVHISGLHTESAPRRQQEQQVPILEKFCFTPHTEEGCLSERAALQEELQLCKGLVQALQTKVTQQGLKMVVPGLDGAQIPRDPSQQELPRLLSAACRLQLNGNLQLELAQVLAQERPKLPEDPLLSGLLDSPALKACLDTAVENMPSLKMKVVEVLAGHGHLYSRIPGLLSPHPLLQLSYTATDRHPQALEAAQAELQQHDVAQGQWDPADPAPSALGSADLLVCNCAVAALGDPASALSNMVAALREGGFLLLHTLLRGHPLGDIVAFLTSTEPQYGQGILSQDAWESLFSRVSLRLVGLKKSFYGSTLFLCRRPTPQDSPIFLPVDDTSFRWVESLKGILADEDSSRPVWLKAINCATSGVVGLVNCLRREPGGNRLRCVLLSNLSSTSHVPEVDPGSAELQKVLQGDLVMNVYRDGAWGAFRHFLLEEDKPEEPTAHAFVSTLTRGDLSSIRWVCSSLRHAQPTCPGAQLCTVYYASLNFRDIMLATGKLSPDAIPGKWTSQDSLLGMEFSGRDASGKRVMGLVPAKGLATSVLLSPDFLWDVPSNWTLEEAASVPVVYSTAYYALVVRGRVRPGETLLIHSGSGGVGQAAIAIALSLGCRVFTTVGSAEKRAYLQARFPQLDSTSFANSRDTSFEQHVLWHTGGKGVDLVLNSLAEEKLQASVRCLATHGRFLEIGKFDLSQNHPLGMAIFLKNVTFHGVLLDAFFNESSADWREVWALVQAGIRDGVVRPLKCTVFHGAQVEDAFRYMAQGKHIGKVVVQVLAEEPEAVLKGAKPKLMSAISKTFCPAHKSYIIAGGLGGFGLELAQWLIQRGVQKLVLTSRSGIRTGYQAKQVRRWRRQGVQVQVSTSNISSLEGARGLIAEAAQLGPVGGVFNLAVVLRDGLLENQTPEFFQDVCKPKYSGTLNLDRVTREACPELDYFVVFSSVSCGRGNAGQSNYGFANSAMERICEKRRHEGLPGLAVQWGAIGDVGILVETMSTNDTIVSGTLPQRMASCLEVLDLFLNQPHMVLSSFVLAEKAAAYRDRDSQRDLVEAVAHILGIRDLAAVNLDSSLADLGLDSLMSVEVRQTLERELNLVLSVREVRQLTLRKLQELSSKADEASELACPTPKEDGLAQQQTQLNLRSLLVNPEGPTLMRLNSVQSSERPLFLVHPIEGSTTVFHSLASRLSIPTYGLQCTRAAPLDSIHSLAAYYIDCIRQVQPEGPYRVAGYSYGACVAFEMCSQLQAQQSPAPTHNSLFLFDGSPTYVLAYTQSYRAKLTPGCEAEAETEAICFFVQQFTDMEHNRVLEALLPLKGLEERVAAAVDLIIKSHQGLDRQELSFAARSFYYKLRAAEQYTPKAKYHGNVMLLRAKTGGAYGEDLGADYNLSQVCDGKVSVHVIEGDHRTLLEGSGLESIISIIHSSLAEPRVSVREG
Chain of Beta-galactosidase (Q8VNN2 whole entry): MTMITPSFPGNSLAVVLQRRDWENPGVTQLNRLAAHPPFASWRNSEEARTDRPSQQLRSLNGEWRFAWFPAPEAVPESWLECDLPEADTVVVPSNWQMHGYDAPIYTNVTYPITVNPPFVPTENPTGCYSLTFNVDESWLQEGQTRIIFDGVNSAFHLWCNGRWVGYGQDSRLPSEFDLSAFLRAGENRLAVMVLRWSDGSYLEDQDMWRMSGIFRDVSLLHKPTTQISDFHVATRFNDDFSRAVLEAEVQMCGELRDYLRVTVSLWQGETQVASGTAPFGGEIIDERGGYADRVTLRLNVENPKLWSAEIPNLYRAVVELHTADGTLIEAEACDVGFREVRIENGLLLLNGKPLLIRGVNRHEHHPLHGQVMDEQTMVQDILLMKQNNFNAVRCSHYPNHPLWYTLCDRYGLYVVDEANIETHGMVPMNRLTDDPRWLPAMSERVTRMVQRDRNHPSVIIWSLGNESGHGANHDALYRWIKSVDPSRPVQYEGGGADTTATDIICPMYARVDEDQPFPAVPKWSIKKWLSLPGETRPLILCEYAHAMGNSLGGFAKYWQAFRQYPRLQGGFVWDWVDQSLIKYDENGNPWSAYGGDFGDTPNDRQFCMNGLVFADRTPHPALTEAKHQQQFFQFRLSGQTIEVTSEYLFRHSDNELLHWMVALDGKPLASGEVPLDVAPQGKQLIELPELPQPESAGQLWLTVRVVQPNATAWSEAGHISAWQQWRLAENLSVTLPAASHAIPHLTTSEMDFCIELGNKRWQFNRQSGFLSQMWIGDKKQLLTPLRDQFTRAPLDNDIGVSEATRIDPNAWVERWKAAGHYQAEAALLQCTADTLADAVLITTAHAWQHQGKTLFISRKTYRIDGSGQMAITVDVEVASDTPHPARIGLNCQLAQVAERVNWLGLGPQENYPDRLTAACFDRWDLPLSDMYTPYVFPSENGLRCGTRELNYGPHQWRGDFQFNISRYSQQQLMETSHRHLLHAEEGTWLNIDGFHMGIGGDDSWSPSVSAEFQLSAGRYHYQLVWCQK

With `COc1cc(/C=C2\C(=N)N3N=C(S(C)(=O)=O)SC3=NC2=O)ccc1OCCOc1ccc(C)cc1`, the IC50 was > 99 µM (inactive) in [1], 3.15 µM (active) in assay [2], 1.84 µM (active) in assay [3] and 4.48 µM (active) in assay [5]. Besides, the EC50 in assay [4] is > 53 µM (inactive).

On to `CC(OC(=O)c1cccc(NS(C)(=O)=O)c1)C(=O)Nc1ccc(N2CCOCC2)cc1` (stereo unspecified), for which the AC50 in assay [6] was 1.56 µM (active).

For the compound `CS(=O)(=O)C(C#N)Cc1cccn1S(=O)(=O)c1ccccc1` (stereo unspecified), the IC50 in assay [7] was > 20 µM (not active); in [8], > 20 µM (inactive).

Turning to `Cc1ccc(C)c(S(=O)(=O)ON2C(=O)c3ccccc3C2=O)c1`, the IC50 was 1.57 µM (active) at Prothrombin; 2.59 µM (active) at Coagulation factor XII; > 100 µM (active) at Genome polyprotein; 1.72 µM (active) on Fatty acid synthase [10]; 3.7 µM (active) at Fatty acid synthase [11]. For the same compound, the “Absolute IC50 (CHOP)” value in [9] was determined as 10 µM. Further, the “Absolute IC50 (XBP1)” value on X-box-binding protein 1 was 10 µM.

`CCOC(=O)c1cccc(-n2ncc(Cl)c(Oc3ccc(OC)cc3)c2=O)c1`: the IC50 in assay [12] is 3.7 µM (active); in assay [13], 1.1 µM (active).

As to `Cc1ccc(S(=O)(=O)/N=C2/C=C(Sc3nc[nH]n3)C(=O)c3ccccc32)cc1`, the IC50 in assay [14] was 19.7 µM (active); in [15], 3.12 µM (active); at Beta-galactosidase it was > 66.6 µM (inactive); in assay [16], > 64 µM (inactive); at Hexokinase HKDC1, 1.8 µM (active). Also, the concentration at half-maximal activity (AC50) in the assay on HeLa is 23.1 µM (active); in the assay with INS1, 6.84 µM (active). Further, in assay [9], the “Absolute IC50 (CHOP)” value came to 10 µM.

Consider `S=C(NCCN1CCOCC1)Nc1ccccc1`, for which the Ki in [17] is 64.3 µM (inactive).
